Reference: ChEMBL document CHEMBL1128544, “2-[N'-(3-arylallylidene)hydrazino]adenosines showing A2a adenosine agonist properties and vasodilation activity” (J Med Chem, 1995)

How the values were obtained:
Adenosine receptor A2a [1] = target: T1, Adenosine receptor A2a (Rattus norvegicus, UniProt P30543)
Description: Functional activity at Adenosine A2A receptor as vasorelaxation of rat aorta

Adenosine receptor A1 [2] = target: T2, Adenosine receptor A1 (Rattus norvegicus, UniProt P25099); assay: Activity at Adenosine A1 receptor of rat atria; assay type: functional
T2 sequence (P25099 whole entry): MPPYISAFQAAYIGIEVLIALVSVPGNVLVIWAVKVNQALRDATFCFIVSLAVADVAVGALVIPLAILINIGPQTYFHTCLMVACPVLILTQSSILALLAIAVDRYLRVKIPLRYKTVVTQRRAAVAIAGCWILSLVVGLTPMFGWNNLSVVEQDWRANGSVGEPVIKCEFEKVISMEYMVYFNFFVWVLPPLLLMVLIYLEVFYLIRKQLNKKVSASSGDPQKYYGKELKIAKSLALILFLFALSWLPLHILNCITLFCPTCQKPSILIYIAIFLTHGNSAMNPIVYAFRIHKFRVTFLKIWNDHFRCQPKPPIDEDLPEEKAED

Adenosine receptor A1 [3] = target: T2, Adenosine receptor A1
Description: Displacement of [3H]CHA from Adenosine A1 receptor of rat brain

Adenosine receptor A2a [4] = target: T1, Adenosine receptor A2a; remark: listed apart in the source

T1 sequence (P30543 whole entry): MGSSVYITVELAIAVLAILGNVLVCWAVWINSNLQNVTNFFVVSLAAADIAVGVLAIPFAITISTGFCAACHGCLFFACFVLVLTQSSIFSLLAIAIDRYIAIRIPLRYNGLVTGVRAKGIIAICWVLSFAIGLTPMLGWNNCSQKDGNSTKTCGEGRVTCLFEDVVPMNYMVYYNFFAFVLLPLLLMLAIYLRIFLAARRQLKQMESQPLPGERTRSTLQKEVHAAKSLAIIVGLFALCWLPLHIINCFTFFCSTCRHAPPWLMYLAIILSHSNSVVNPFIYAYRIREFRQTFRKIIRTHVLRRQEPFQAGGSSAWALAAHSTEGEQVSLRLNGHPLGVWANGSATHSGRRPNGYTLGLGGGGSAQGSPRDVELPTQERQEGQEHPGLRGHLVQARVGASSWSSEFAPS

SMILES	EC50 (Adenosine receptor A2a [1])	EC50 (Adenosine receptor A1 [2])	Ki (Adenosine receptor A1 [3])	Ki (Adenosine receptor A2a [4])
Nc1nc(N/N=C/c2ccco2)nc2c1ncn2[C@@H]1O[C@H](CO)[C@@H](O)[C@H]1O	195 nM	> 10 µM	1850 nM	42 nM
COc1cc(/C=C/C=N/Nc2nc(N)c3ncn([C@@H]4O[C@H](CO)[C@@H](O)[C@H]4O)c3n2)ccc1O	281 nM	4.89 µM	545 nM	27 nM
Nc1nc(N/N=C/C=C(c2ccccc2)c2ccccc2)nc2c1ncn2[C@@H]1O[C@H](CO)[C@@H](O)[C@H]1O	704 nM	> 1.86 µM	64 nM	> 1000 nM
Nc1nc(N/N=C/C=C/c2ccco2)nc2c1ncn2[C@@H]1O[C@H](CO)[C@@H](O)[C@H]1O	800 nM	4.34 µM	1670 nM	83 nM
Cc1ccc(/C=N/Nc2nc(N)c3ncn(C4O[C@H](CO)[C@@H](O)[C@H]4O)c3n2)cc1 (some centres undefined)	747 nM	> 10 µM	1770 nM	29 nM
Nc1nc(N/N=C/C=C/c2ccccc2)nc2c1ncn2[C@@H]1O[C@H](CO)[C@@H](O)[C@H]1O	269 nM	> 10 µM	1050 nM	38 nM
COc1ccccc1/C=C/C=N/Nc1nc(N)c2ncn([C@@H]3O[C@H](CO)[C@@H](O)[C@H]3O)c2n1	529 nM	1.97 µM	264 nM	384 nM

Second part, the compound after the results:

EC50 (Adenosine receptor A2a [1])	EC50 (Adenosine receptor A1 [2])	Ki (Adenosine receptor A1 [3])	Ki (Adenosine receptor A2a [4])	SMILES
638 nM	> 10 µM	935 nM	54 nM	Nc1nc(N/N=C/C=C/c2ccccc2[N+](=O)[O-])nc2c1ncn2[C@@H]1O[C@H](CO)[C@@H](O)[C@H]1O
677 nM	> 10 µM	425 nM	59 nM	COc1ccc(/C=C/C=N/Nc2nc(N)c3ncn([C@@H]4O[C@H](CO)[C@@H](O)[C@H]4O)c3n2)cc1
728 nM	0.866 µM	101 nM	170 nM	CN(C)c1ccc(/C=C/C=N/Nc2nc(N)c3ncn([C@@H]4O[C@H](CO)[C@@H](O)[C@H]4O)c3n2)cc1
482 nM	> 10 µM	524 nM	23 nM	Nc1nc(N/N=C/C=C/c2ccc([N+](=O)[O-])cc2)nc2c1ncn2[C@@H]1O[C@H](CO)[C@@H](O)[C@H]1O
